# Test results: patent publication US20170030891A1, “BLOOD CONDITION ANALYSIS DEVICE, BLOOD CONDITION ANALYSIS SYSTEM, BLOOD CONDITION ANALYSIS METHOD, AND PROGRAM” (SONY CORPORATION, priority 2014, published 2017)
# Key:
# [1] = test system: blood coagulation; assay: complex permittivity at 10 MHz of blood samples having different heparin concentrations; conditions: relation to heparin concentration, FIG. 12
# Experimental: The blood condition analysis method of this embodiment is not limited to the evaluation criteria and evaluation methods described above. For example, it is also possible that heparin is used as the drug, and the suppressing effect of heparin on blood coagulation is evaluated. FIG. 11 is a diagram showing time-dependent changes in the real part (∈′) of the complex permittivity of blood samples having different heparin concentrations at 10 MHz, and FIG. 12 is a diagram showing the relation between the clotting time determined from the values of ∈′ at 10 MHz shown in FIG. 11 and the heparin concentration. In addition, FIG. 13 is a diagram showing the coagulation curves of blood samples having different heparin concentrations, and FIG. 14 is a diagram showing the relation between the heparin concentration and the difference in clotting time.
# [2] = test system: fibrinolysis system of the blood; assay: complex permittivity at 10 MHz of blood samples with fibrinolysis system promotor (tPA) and inhibitor (aprotinin); conditions: aprotinin added to blood with tPA, 10 MHz, FIG. 10
# Experimental: In addition, for example, in the case where the fibrinolysis system is evaluated, examples of coagulation factors to be evaluated include plasminogen and plasmin. In that case, as a drug to be added to the blood sample, an activator or inhibitor of plasminogen or plasmin is usable. FIG. 9 is a diagram showing time-dependent changes in the real part (∈′) of the complex permittivity at 10 MHz of blood samples having different fibrinolysis system promotor (tPA) and fibrinolysis system inhibitor (aprotinin) concentrations.
# For the evaluation of the fibrinolysis-system blood, for example, a value obtained by dividing the amplitude after 30 minutes from the time B shown in FIGS. 2A-2B by the amplitude at the time B (LI30: the source of clot firmness after a predetermined period of time from the maximum firmness accompanying fibrinolysis) can be used as an evaluation parameter.
# [3] = test system: platelet factors; assay: time-dependent changes in real part of complex permittivity of blood samples having different CyD concentrations at 10 MHz; type: cell-based
# Excerpt: The electrical characteristic measurement device 10 includes a measurement unit that applies a voltage between a pair of electrodes provided in a sample container filled with a blood sample to be evaluated, and measures the electrical characteristics of the blood sample over time at a specific frequency or frequency band. Examples of electrical characteristics measured by the electrical characteristic measurement device 10 include the impedance, conductance, admittance, capacitance, permittivity, conductivity, and phase angle, as well as amounts obtained by converting them into the amounts of electricity. Incidentally, the blood condition analysis system 1 of this embodiment can perform evaluation from at least one kind of these electrical characteristics, but may also utilize two or more kinds of electrical characteristics.
# In the measurement step S1, the electrical characteristics of two or more blood samples adjusted from one blood specimen and having different drug types or concentrations are measured over time at a specific frequency or frequency band. At this time, the conditions for the electrical characteristic measurement are not particularly limited, and may be suitably set according to the kind of electrical characteristics and the like within a range where the blood to be evaluated is not deteriorated.
# In the analysis step S2, utilizing data of time-dependent changes in the electrical characteristics measured by the electrical characteristic measurement device 10, the influence of the drug or a factor in the blood on the coagulation system or fibrinolysis system of the blood is evaluated by the blood condition analysis device 11. For example, from data of time-dependent changes in the electrical characteristic of each blood sample, parameters conventionally used for the evaluation of the coagulation system or fibrinolysis system of blood are calculated. […]
# In addition, for example, in the case where the coagulation system is evaluated, examples of coagulation factors to be evaluated include platelet factors and fibrinogen. […]
# [4] = test system: platelets; assay: Example 1: complex permittivity in the process of coagulation of blood with CyD or Pefabloc at various concentrations; type: cell-based; conditions: sample with Pefabloc concentration 0%, FIG. 24; addition of 8 μl of CyD to 180 μl of blood; blood from a healthy individual
# Experimental: (§1) Hereinafter, the effects of the present disclosure will be described in detail. In this example, CyD or Pefabloc was added at various concentrations to a blood sample collected from a healthy individual, and changes in the complex permittivity in the process of coagulation were measured.
# (§2) As shown in the following Mathematical Formula 1, the clot firmness CF depends on the effective concentration of platelets PLT and the effective concentration of fibrinogen FIB. Incidentally, a, b, and c in the following Mathematical Formula 1 are parameters determined by measurement.
# (§3) Here, by applying the analysis method shown in FIG. 8 to the data of a sample having a Pefabloc concentration of 0% shown in FIG. 24, it can be estimated that the CyD concentration at which the contribution of platelets disappears is 3.4 μg/ml (the addition of 8 μl of CyD to 180 μl of blood). As a result, the effective concentration of platelets (142000/μl) can be determined. In a similar manner, the amount of fibrinogen can be determined using the data of a sample having a CyD concentration of 0% shown in FIG. 25.
# [5] = target: T1, fibrinogen (Homo sapiens, UniProt P02675+P02679); assay: as above; conditions: from PFG concentration dependence at CyD concentration 0, FIG. 25; blood from a healthy individual
# T1 construct: from tissue; host or cells: blood sample (donor not described)
# Experimental: as §1, §2, §3
# Then, the effective concentration of platelets PLT can be estimated from data of CyD concentration dependence. In addition, the effective concentration of fibrinogen FIB can be estimated from data of PFG concentration dependence. […]
# [6] = target: T1, fibrinogen; assay: coagulation amplitude and coagulation time of blood samples vs fibrinogen inhibitor (Pefabloc) concentration; conditions: relation to Pefabloc concentration, FIG. 15A and 15B
# Excerpt: Further, by using a fibrinogen inhibitor, such as Pefabloc, as the drug, the influence of fibrinogen can also be evaluated. FIG. 15A is a diagram showing the relation between the fibrinogen inhibitor (Pefabloc) concentration and the coagulation amplitude, while FIG. 15B is a diagram showing the relation with the coagulation time. […] Thus, utilizing this characteristic, the influence of fibrinogen can be evaluated, or the amount of fibrinogen can be estimated.
# T1 sequence (P02671 20-629 partner limits assumed): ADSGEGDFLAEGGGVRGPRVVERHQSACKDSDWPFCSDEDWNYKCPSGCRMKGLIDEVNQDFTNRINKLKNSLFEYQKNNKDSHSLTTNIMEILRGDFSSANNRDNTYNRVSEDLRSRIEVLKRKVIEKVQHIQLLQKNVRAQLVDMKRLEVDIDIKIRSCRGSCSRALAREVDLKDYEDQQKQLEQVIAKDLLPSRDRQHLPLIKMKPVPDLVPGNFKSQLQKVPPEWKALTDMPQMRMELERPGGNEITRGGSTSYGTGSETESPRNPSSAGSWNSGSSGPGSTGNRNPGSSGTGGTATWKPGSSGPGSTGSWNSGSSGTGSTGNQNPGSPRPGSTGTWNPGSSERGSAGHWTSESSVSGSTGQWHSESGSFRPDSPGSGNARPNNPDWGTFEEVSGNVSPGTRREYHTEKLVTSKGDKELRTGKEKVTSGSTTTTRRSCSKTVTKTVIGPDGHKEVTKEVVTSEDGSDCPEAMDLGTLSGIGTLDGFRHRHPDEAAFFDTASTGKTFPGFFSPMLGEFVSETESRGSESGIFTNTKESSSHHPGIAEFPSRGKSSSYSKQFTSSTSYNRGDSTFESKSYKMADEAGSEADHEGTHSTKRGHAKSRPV
# T1 sequence (P02675 31-491): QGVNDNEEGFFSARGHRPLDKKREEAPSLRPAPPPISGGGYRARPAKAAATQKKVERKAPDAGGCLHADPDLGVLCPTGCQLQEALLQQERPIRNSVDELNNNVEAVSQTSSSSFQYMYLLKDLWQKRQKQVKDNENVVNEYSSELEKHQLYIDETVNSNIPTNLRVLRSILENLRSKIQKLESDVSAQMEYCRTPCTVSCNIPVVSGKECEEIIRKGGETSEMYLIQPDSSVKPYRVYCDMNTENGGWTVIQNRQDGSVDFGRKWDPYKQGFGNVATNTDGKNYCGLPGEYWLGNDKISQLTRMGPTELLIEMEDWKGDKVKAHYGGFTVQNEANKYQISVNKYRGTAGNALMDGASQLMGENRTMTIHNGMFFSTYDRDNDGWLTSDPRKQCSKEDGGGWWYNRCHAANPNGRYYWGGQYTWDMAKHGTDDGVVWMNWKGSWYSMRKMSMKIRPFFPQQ
# T1 sequence (P02679 27-433 limits assumed): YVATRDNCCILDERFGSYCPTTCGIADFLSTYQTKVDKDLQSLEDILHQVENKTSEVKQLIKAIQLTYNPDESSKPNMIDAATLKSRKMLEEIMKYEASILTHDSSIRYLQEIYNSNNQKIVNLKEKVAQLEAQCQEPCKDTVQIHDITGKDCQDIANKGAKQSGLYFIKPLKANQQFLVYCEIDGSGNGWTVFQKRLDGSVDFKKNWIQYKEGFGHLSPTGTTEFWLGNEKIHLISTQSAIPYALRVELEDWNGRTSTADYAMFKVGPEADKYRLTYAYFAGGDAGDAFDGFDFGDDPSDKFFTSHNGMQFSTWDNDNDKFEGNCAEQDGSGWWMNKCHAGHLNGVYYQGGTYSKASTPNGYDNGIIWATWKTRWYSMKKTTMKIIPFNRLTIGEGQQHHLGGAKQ
compound,measurement,setting,value
heparin,clotting time determined from ∈′ at 10 MHz,[1],the clotting time increases with an increase in the heparin concentration
aprotinin,LI30 (amplitude after 30 minutes from time B divided by amplitude at time B),[2],turns back to the value of the control blood sample
"C=C1[C@@H](C)[C@H]2[C@H](Cc3ccccc3)NC(=O)[C@]23[C@H](OC(C)=O)/C=C/[C@@](C)(O)C(=O)[C@@H](C)C/C=C/[C@H]3[C@@H]1O [CyD, cytochalasin D]",amount of CyD for inhibiting the platelet factors,"[3]; blood sample of FIG. 8, number of platelets 136500 per 1 μl",25 ng per platelet
same,minimum drug dose to completely suppress the action of platelet factors,"[3]; from coagulation rate vs CyD concentration (FIG. 8), agrees with coagulation rate of blood sample containing excess CyD",3.3 µg/mL
same,coagulation amplitude and coagulation rate determined from the real part of the complex permittivity,"[3]; relation to CyD concentration, FIG. 7 and FIG. 8",correlated with the CyD concentration
same,CyD concentration at which the contribution of platelets disappears,[4],3.4 µg/mL
"H-Gly-Pro-Arg-Pro-OH×AcOH (H-GPRP-OH; also: acetate salt) [Pefabloc, fibrinogen function suppressor]",effective concentration of fibrinogen FIB (equivalent PFG),[5],1000 µg/mL
same,coagulation amplitude and clotting time,[6],the coagulation amplitude and the clotting time change with an increase in the fibrinogen inhibitor (Pefabloc) concentration
